Here are results for two compounds from patent US20120034312A1, “4-ISOPROPYL-3-METHYLPHENOL FOR THE TREATMENT OF INFLAMMATION” (Glaxo Group Limited, priority 2009, published 2012).

The test system of data set [1] is LPS stimulated Raw 264.7 Macrophage cells.
Procedure: Anti-inflammatory activity was assessed on classical inflammation model LPS stimulated Raw 264.7 Macrophage cells. Inflammation response was quantified by measurements of the release of Prostaglandin E2 (PGE2) from the cells. Cells were exposed to E.coli lipopolysaccharide (LPS) with or without IPMP for 24 hours prior to assay. […] All values were normalized to cell viability of same sample, then to the inflammatory response of the cells without the addition of agents or LPS (100%).
Data set [2] has as its system Human Gingival Fibroblasts. Briefly: PGE2 release from LPS exposed Human Gingival Fibroblasts. Type of data set: cell-based. Conditions: for PGE2 Response (with LPS): media only without LPS = 100. How it is done:
To further evaluate anti-inflammatory activity of IPMP in the oral cavity, a similar experiment was conducted on Human Gingival Fibroblasts. Cells were exposed to LPS as well as three non-irritating doses of IPMP (see example 1).
Another further experiment with IPMP and zinc chloride was conducted on Human Gingival Fibroblasts.

With `Cc1cc(O)ccc1C(C)C` [IPMP, 4-isopropyl-3-methylphenol], in data set [1], the “Cell death / cell proliferation at nonirritative dose” value is given as “neither cause cell death nor affect cell proliferation”. Besides, the “Irritation of cells by IPMP by itself” value in data set [1] is given as “did not irritate the cells”. In data set [1] (50 μM IPMP, 24 hours, no LPS, normalized to cell viability and to cells without agents or LPS (100%)), the “PGE2 Response (without LPS)” value was found to be 101 ± 0.0%. Besides, the “PGE2 Response (with LPS)” value in data set [1] (50 μM IPMP, E.coli LPS, 24 hours, normalized to cell viability and to cells without agents or LPS (100%)) amounted to 141 ± 6.4%; in data set [2] (2 μM IPMP), 146 ± 46.6%; in data set [2] (10 μM IPMP), 127 ± 21.6%; in data set [2] (50 μM IPMP), 103 ± 13.3%. In addition, the “Suppression of LPS induced inflammation” value in data set [2] (2, 10, 50 μM IPMP, with LPS) is on record as “suppresses LPS induced inflammation in a dose-dependent manner”.
Turning to `[Cl-].[Cl-].[Zn+2]` [Zinc Chloride, zinc chloride, reference compound], the “PGE2 Response (with LPS)” value in data set [2] (55 μM Zinc Chloride) turned out to be 171 ± 2.9%.
